Values after ≈ are worked out from the molar mass of the structure shown. Like-named read-outs stand apart in the source and are kept apart here.
Assays:
oral mucosa cells = assay: Genotoxic effects on oral mucosa cells; format: cell-based, human; details: for Binucleation / Karyolysis / Karyorrhexis / Micronucleus / Normal: 30 min ex vivo
Method: The tests were performed according to the recommendations established by the Code of Ethics of the World Medical Association, after approval by the ethics committee of the Centro Universitário de Patos (number: 3621284). Blood samples (types A, B, and O) and smears of oral mucosa were donated by young, healthy adults. First, the oral mucosa cells were collected from the donors, which was done with a cyto-brush (smear collector) in the cheek area, and the material obtained was placed in 5 mL of 0.9% NaCl. As controls, cells treated with hydrogen peroxide −0.0005% (positive control) and untreated cells (negative control) were used. The cells were washed twice with saline and centrifuged for 10 min at 400× g and kept in saline. After the third wash, the cells were exposed (ex vivo) to A2 substance at 50, 100, 500, and 1000 µg/mL concentrations for 30 min. The material was centrifuged and the supernatant was discarded before smear preparation. The cells were homogenized in a vortex and placed on the slides at room temperature for drying for 15 min. Then, they were fixed with methanol: acetic acid (3:1) for 15 min and stained with 2% Giemsa.

K. pneumoniae = assay: Effect on bacterial cell integrity (release of 260 nm absorbing material); format: cell-based, Klebsiella pneumoniae; details: compared to negative control, p ≤ 0.0001
Method: The cell integrity can be assessed by releasing intracellular material, mainly nucleotides, which absorb 260 nm wavelengths. The K pneumoniae strains ATCC-700603, KP-26, KP-56, and KP-143 were used to perform this test. First, the bacterial inoculum was incubated in BHI broth (1 × 10^7 CFU/mL) overnight at 35 ± 2 °C. Then, centrifugation was performed at 400× g for 10 min. The cell pellet was washed three times with sterile PBS (phosphate-buffered saline) and resuspended in PBS containing the A2 substance at MIC and 2× MIC concentrations. As a negative control, suspensions that underwent the same procedures, but without treatment with the substance, were used. The tubes corresponding to the MIC were incubated for 10 h at 35 ± 2 °C, and the tubes corresponding to the 2× MIC, for 6 h. After incubation, the suspensions were centrifuged at 400× g for 10 min and the supernatants were read on a spectrophotometer at 260 nm. All analyses were performed in triplicate.

[1] = system: K. pneumoniae (ATCC-700603 and KP-56); assay: Time-kill kinetics; format: cell-based, Klebsiella pneumoniae
Method: The determination of the action time of A2 substance against K. pneumoniae (ATCC-700603 and KP-56) was carried out exposing the microorganisms to concentrations equivalent to MIC and 2× MIC during times 0, 2, 4, 6, 8, 10, and 24 h. After incubation on Mueller–Hinton agar, bacterial colonies were counted. Bactericidal activity was defined as a ≥3-log reduction in bacterial counts (log10 CFU/mL).

[2] = system: red blood cells (RBC) of the ABO system; assay: Antihemolytic activity (osmotic fragility); format: cell-based, human; details: 0.24% NaCl
Method: The tests were performed according to the recommendations established by the Code of Ethics of the World Medical Association, after approval by the ethics committee of the Centro Universitário de Patos (number: 3621284). Blood samples (types A, B, and O) and smears of oral mucosa were donated by young, healthy adults.
The analysis of the osmotic fragility of the red cells was performed using previously prepared red blood cell suspensions at 0.5%. Different concentrations (50, 100, 500, and 1000 µg/mL) of the A2 substance were used for the treatment of 0.5% RBC suspensions for 1h at 22 ± 2 °C. The samples were centrifuged at 2500 rpm for 5 min and the supernatant was discarded. The erythrocytes were resuspended in a hypotonic solution of 0.24% sodium chloride for one hour at 22 ± 2 °C. After this period, the samples were centrifuged at 700× g for 5 min and the hemolysis of the supernatant was quantified by spectrophotometry at 540 nm. As controls, a suspension of untreated red blood cells was used as a negative control (0% hemolysis) and in a hypotonic solution as a positive control (100% hemolysis).

K. pneumoniae strains = assay: Minimum inhibitory concentration (MIC), broth microdilution; format: cell-based, Klebsiella pneumoniae
Method: The clinical isolates strains of K. pneumoniae were used in this study belong to the MICOTECA of the Antibacterial and Antifungal Activity Research Laboratory of the Federal University of Paraíba, Brazil, which are: KP-25, KP-26, KP-56, KP-83, KP-87, KP-138, KP-143, KP-166, KP-173, KP-176, KP-260, and KP-326. The American Type Culture Collection strain ATCC-700603 was used as controls. For use in the assays, bacterial suspensions were prepared in 0.9% saline solution, from fresh cultures, and adjusted to the McFarland standard 0.5 scale.
To assess the antibacterial activity of substances A1 and A2, the minimum inhibitory concentration against K. pneumoniae strains was determined. The substances were solubilized in dimethyl sulfoxide (DMSO) at 5% and Tween-80 at 2%, to obtain emulsions in the concentrations necessary for use in the tests. The MIC determination was performed using the broth microdilution technique in a 96-well plate to obtain different concentrations of A1 and A2 [35]. In parallel, controls for sterility, cell viability, and interference of the vehicles used in the preparation of substance emulsions (DMSO and Tween-80) were also performed. MIC is defined as the lowest concentration capable of causing complete inhibition of bacterial growth after 24 h at 35 ± 2 °C.

## O=C(CCl)Nc1ccc(F)c([N+](=O)[O-])c1 [A2, 2-chloro-N-(4-fluoro-3-nitrophenyl)acetamide]
other
  melting point: 91 to 93 °C
Oral mucosa cells; 50 µg/mL
  Binucleation: 0.00%
  Karyolysis: 1.00%
  Karyorrhexis: 1.00%
  Micronucleus: 0.50%
  Normal: 97.50%
Oral mucosa cells; 100 µg/mL
  Binucleation: 0.00%
  Karyolysis: 3.00%
  Karyorrhexis: 4.00%
  Micronucleus: 0.50%
  Normal: 92.50%
Oral mucosa cells; 500 µg/mL
  Binucleation: 0.50%
  Karyolysis: 4.00%
  Karyorrhexis: 5.00%
  Micronucleus: 0.70%
  Normal: 86.80%
Oral mucosa cells; 1000 µg/mL
  Binucleation: 0.50%
  Karyolysis: 5.00%
  Karyorrhexis: 7.00%
  Micronucleus: 2.00%
  Normal: 83.50%
Oral mucosa cells; all tested concentrations (50–1000 µg/mL)
  normal cells: greater than 80%
K. pneumoniae; 2× MIC, six hours
  release of 260 nm absorbing material (cell lysis): Cell lysis is also evident
K. pneumoniae; MIC, 10 h of treatment
  release of 260 nm absorbing material (cytoplasmic contents): significant release of cytoplasmic contents
[1]; A2 at 2× MIC
  time of treatment to total reduction of viable cells: 6 h
[1]; A2 at MIC
  time of treatment to total reduction of viable cells: 10 h
[2]; 1000 µg/mL, type B red blood cells
  percentage of hemolysis in hypotonic solution (anti-hemolytic evaluation): > 80%
[2]; all concentrations (50–1000 µg/mL), three ABO blood types, except 1000 µg/mL in type B
  percentage of hemolysis in hypotonic solution (anti-hemolytic evaluation), class: moderate (moderate (40% and 80%))
K. pneumoniae strains; Klebsiella pneumoniae, ATCC700603, strain ATCC-700603, 24 h at 35 ± 2 °C, read-out: MIC
  MIC: 512 µg/mL (≈ 2200 µM)
K. pneumoniae strains; Klebsiella pneumoniae, 100% of the K. pneumoniae strains used in this study, read-out: MIC
  MIC: 512 µg/mL (≈ 2200 µM)
K. pneumoniae strains; Klebsiella pneumoniae, strain KP-138, 24 h at 35 ± 2 °C, read-out: MIC
  MIC: 512 µg/mL (≈ 2200 µM)
K. pneumoniae strains; strain KP-25, 24 h at 35 ± 2 °C
  MIC: 512 µg/mL (≈ 2200 µM)
K. pneumoniae strains; strain KP-26, 24 h at 35 ± 2 °C
  MIC: 512 µg/mL (≈ 2200 µM)
K. pneumoniae strains; strain KP-56, 24 h at 35 ± 2 °C
  MIC: 512 µg/mL (≈ 2200 µM)
K. pneumoniae strains; strain KP-83, 24 h at 35 ± 2 °C
  MIC: 512 µg/mL (≈ 2200 µM)
K. pneumoniae strains; strain KP-87, 24 h at 35 ± 2 °C
  MIC: 512 µg/mL (≈ 2200 µM)
K. pneumoniae strains; strain KP-143, 24 h at 35 ± 2 °C
  MIC: 512 µg/mL (≈ 2200 µM)
K. pneumoniae strains; strain KP-166, 24 h at 35 ± 2 °C
  MIC: 512 µg/mL (≈ 2200 µM)
K. pneumoniae strains; strain KP-173, 24 h at 35 ± 2 °C
  MIC: 512 µg/mL (≈ 2200 µM)
K. pneumoniae strains; strain KP-176, 24 h at 35 ± 2 °C
  MIC: 512 µg/mL (≈ 2200 µM)
K. pneumoniae strains; strain KP-260, 24 h at 35 ± 2 °C
  MIC: 512 µg/mL (≈ 2200 µM)
K. pneumoniae strains; strain KP-326, 24 h at 35 ± 2 °C
  MIC: 512 µg/mL (≈ 2200 µM)

— publication PMC7504751, “Potential of 2-Chloro-N-(4-fluoro-3-nitrophenyl)acetamide Against Klebsiella pneumoniae and In Vitro Toxicity Analysis” (Molecules, 2020)
